Among the data in ChEMBL document CHEMBL5506073, “Discovery of Novel Ortho-Aminophenol Derivatives Targeting Lipid Peroxidation with Potent Antiferroptotic Activities” (J Med Chem, 2024) are inhibition values, retold here.

Molecules are shown by their SMILES. Calls of active or inactive are those of the source. The calls are words filed in the database; no cut-off is given here.

The assay deals with HT-1080. Put plainly: Inhibition of RSL3-induced ferroptosis in human HT-1080 cells assessed as cell viability upto 10 uM incubated for 24 hrs by CCK8 assay. Type of assay: functional, cell-based.

Consider `Nc1c(O)cccc1C(=O)O`, for which the inhibition result was “inactive”.
